What is called Ki is the dissociation constant of the complex between target and ligand, obtained from inhibition or displacement. As a reminder, the inhibition is the change of the read-out against control, counted positive when it falls.

Where a SMILES comes first, the peptide text is derived from it. Bridges are numbered along the chain shown (N, C = ends). [ ]: non-standard residue; d: D form. NMeR = CN[C@@H](CCCNC(=N)N)C(=O)O; Pen = CC(C)(S)[C@H](N)C(=O)O

In one assay the target is Integrin alpha-IIb/beta-3 (Homo sapiens, UniProt P05106+P08514). Description: Inhibition of 125[I] Fibrinogen binding to isolated purified human fibrinogen receptor.
Chain of Integrin alpha-IIb/beta-3 (P05106 27-788 limits assumed): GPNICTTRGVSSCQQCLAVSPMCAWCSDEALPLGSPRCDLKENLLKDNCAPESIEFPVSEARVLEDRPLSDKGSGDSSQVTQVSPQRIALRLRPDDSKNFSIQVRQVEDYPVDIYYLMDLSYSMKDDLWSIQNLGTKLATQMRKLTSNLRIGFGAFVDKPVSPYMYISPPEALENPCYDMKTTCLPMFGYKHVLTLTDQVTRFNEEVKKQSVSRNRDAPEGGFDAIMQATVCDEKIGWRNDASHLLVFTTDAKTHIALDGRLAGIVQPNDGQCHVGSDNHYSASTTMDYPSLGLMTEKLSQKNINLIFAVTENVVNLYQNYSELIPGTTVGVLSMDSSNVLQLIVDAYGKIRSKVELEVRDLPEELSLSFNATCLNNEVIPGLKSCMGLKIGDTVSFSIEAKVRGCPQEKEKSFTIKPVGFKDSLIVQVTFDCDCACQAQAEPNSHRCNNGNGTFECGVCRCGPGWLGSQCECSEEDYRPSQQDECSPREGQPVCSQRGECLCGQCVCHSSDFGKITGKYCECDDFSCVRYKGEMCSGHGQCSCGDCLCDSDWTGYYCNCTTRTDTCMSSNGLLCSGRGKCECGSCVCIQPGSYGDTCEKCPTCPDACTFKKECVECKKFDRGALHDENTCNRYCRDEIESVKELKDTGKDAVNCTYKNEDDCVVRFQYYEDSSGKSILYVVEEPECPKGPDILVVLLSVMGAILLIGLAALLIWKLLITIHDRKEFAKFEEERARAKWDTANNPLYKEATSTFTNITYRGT
Chain of Integrin alpha-IIb/beta-3 (P08514 32-887 limits assumed): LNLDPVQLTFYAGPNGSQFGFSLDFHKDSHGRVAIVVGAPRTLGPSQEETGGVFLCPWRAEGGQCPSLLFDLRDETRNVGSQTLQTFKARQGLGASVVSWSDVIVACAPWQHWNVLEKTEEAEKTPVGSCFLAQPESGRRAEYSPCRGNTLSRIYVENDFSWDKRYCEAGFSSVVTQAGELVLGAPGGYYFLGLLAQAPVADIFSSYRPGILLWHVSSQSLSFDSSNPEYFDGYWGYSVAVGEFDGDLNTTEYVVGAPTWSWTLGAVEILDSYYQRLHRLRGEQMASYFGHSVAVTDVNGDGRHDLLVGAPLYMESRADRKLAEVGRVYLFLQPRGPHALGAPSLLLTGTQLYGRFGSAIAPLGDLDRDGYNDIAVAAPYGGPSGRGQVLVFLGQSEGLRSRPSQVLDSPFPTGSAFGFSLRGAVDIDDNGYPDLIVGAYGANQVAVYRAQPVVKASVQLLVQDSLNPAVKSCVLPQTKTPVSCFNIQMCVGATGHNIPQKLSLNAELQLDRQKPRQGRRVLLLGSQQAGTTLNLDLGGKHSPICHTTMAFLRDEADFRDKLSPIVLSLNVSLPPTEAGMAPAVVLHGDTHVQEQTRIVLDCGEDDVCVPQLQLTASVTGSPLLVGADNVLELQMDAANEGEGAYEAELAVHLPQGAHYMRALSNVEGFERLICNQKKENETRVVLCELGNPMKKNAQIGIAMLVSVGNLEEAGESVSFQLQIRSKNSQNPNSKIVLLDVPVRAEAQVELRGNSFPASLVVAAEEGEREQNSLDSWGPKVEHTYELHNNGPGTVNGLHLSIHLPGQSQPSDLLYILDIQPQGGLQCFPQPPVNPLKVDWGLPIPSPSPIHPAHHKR
Chain of Integrin alpha-IIb/beta-3 (P08514 891-1039 limits assumed): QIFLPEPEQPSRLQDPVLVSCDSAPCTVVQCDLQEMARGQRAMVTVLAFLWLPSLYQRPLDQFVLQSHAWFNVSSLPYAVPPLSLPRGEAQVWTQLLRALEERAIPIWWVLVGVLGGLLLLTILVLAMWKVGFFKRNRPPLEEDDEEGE
Conditions: not given
Format: protein-complex assay.
Turning to `CC(=O)N[C@@H]1CSSC(C)(C)[C@H](C(N)=O)NC(=O)[C@H](CC(=O)O)NC(=O)CNC(=O)[C@@H](CCCNC(=N)N)NC1=O`, the Ki amounted to 0.72 µM. Take `CC(=O)N[C@H]1CSSC[C@@H](C(N)=O)NC(=O)[C@H](CO)NC(=O)[C@H](CC(=O)O)NC(=O)CNC(=O)[C@H](CCCN=C(N)N)NC1=O` (Ac-CRGDSC-NH2; disulfide 1-6): the Ki stood at 5.3 µM. Still for that read-out and setting: next, `CC(=O)N[C@H]1CSSC[C@@H](C(N)=O)NC(=O)[C@H](CC(=O)O)NC(=O)CNC(=O)[C@H](CCCN=C(N)N)NC1=O`: 0.78 µM. On to `CC(=O)N[C@H]1CSSC(C)(C)[C@@H](C(N)=O)NC(=O)[C@H](CC(=O)O)NC(=O)CNC(=O)[C@H](CCCN=C(N)N)N(C)C1=O` (Ac-C[NMeR]GD[Pen]-NH2; disulfide 1-5), for which the affinity, expressed as Ki, was 0.058 µM. Ac-HHLGGAKQAGDV-OH showed a Ki of 14.5 µM.

For another assay, the system named is Integrin alpha-IIb/beta-3 (Canis familiaris). Nature of the assay: Inhibition of canine platelet-rich plasma induced by ADP. Details: concentration or dose not given beside the values. The settings on record: Canis lupus familiaris, concentration not given here.
Consider `CC(=O)N[C@@H]1CSSC(C)(C)[C@H](C(N)=O)NC(=O)[C@@H](CC(=O)O)NC(=O)CN(C)C(=O)[C@@H](CCCN=C(N)N)NC1=O`, for which the inhibition came out at 57%. On the same count and under the same terms, the result for `CC(=O)N[C@@H]1CSSC(C)(C)[C@H](C(N)=O)NC(=O)[C@H](CC(=O)O)NC(=O)CNC(=O)[C@H](CCCN=C(N)N)NC(=O)CNC1=O` reads 100%; that for `CC(=O)N[C@@H](Cc1c[nH]cn1)C(=O)N[C@@H](Cc1c[nH]cn1)C(=O)N[C@@H](CC(C)C)C(=O)NCC(=O)NCC(=O)N[C@@H](C)C(=O)N[C@@H](CCCCN)C(=O)N[C@H]1CSSC(C)(C)[C@H](C(N)=O)NC(=O)[C@H](CC(=O)O)NC(=O)CNC(=O)[C@H](CCCN=C(N)N)NC1=O`, 100%; that for `CC(=O)N[C@@H](CCCN=C(N)N)C(=O)NCC(=O)N[C@@H](CC(=O)O)C(=O)N[C@@H](Cc1ccc(O)cc1)C(N)=O` (Ac-RGDY-NH2), 98%. As to `CC(=O)N[C@@H]1CSSC[C@@H](C(N)=O)NC(=O)[C@H](CC(=O)O)NC(=O)CNC(=O)[C@H](CCCN=C(N)N)NC(=O)CNC1=O`, the inhibition was 100%. As to `CC(=O)N[C@H]1C(=O)N(C)[C@@H](CCCN=C(N)N)C(=O)NCC(=O)N[C@@H](CC(=O)O)C(=O)N[C@@H](C(N)=O)C(C)(C)SSC1(C)C`, the inhibition was found to be 100%. In turn, `CC(=O)N[C@@H]1CSSC[C@H](C(N)=O)NC(=O)[C@@H](CC(=O)O)NC(=O)CNC(=O)[C@@H](CCCN=C(N)N)NC1=O` had an inhibition of 55%. Take `CC(=O)N[C@H]1C(=O)N[C@@H](CCCN=C(N)N)C(=O)NCC(=O)N[C@@H](CC(=O)O)C(=O)N[C@H](C(N)=O)CSSC1(C)C`: the inhibition was found to be 100%.

The values above are taken from ChEMBL document CHEMBL1125778, “Development of a small RGD peptide fibrinogen receptor antagonist with potent antiaggregatory activity in vitro” (J Med Chem, 1991).
